The results in this text go back to PubChem BioAssay AID330 (DTP/NCI, 2004).

Where “and” joins values, the source holds several entries; their conditions need not be identical. Identical values can stand only once. Inconclusive results and toxic doses are left out. Numbered stars: 1 amine (or outer) side, 2 acyl side, 3 side chain; on linkers, the order of the positions; unused ones are H or OH. Bridge positions count the residues as written; N and C are the ends. Square brackets hold non-standard residues; d marks the D form. Peptide text beside a SMILES is read from it. I, II: the chains in the order shown. Actinocin(9to1) = Cc1c2oc3c(C)ccc(C(=O)[*:1])c3nc-2c(C(=O)[*:2])c(N)c1=O; NMeV = CN[CH](C(=O)O)C(C)C; Sar = CNCC(=O)O

This assay deals with P388 leukemia ip, CD2F1 mice, survival T/C. Put plainly: NCI In Vivo Anticancer Drug Screen. Data for tumor model P388 Leukemia (intraperitoneal) in CD2F1 (CDF1) mice. To be noted: endpoint: median survival time, higher = longer survival. Here is the method: The antitumor activity of compounds was measured in mice bearing transplantable tumors. Survival or tumor size were measured and the results are expressed as the measurement made in the treated group (T) divided by the measurement made in the vehicle treated control group (C). The tumor model used in this assay is P388 Leukemia (intraperitoneal) in CD2F1 (CDF1) mice

The mark [1] stands for this setting: dose: 50.0 mg/kg/injection, schedule: Q01DX005 (ip), vehicle: saline with Tween-80.
[2] abbreviates: dose: 100.0 mg/kg/injection, schedule: Q01DX005 (ip), vehicle: saline with Tween-80.
Setting [3] is: dose: 50.0 mg/kg/injection, schedule: Q01DX009 (ip), vehicle: saline with Tween-80.
Setting [4] is: dose: 100.0 mg/kg/injection, schedule: Q01DX009 (ip), vehicle: saline with Tween-80.
The mark [5] stands for this setting: dose: 50.0 mg/kg/injection, schedule: Q01DX009 (ip), vehicle: Klucel (hydroxypropylcellulose) (HPC).
[6] abbreviates: dose: 100.0 mg/kg/injection, schedule: Q01DX009 (ip), vehicle: Klucel (hydroxypropylcellulose) (HPC).
The mark [7] stands for this setting: dose: 200.0 mg/kg/injection, schedule: Q01DX009 (ip), vehicle: Klucel (hydroxypropylcellulose) (HPC).

`Cc1c2oc3c(C)ccc(C(=O)NC4C(=O)NC(C(C)C)C(=O)N(C)CC(=O)N(C)CC(=O)N(C)C(C(C)C)C(=O)OC4C)c3nc-2c(C(=O)NC2C(=O)NC(C(C)C)C(=O)N(C)CC(=O)N(C)CC(=O)N(C)C(C(C)C)C(=O)OC2C)c(N)c1=O` (stereo not drawn) (I: TV[Sar][Sar][NMeV] / II: TV[Sar][Sar][NMeV]; ester I:1-I:C, II:1-II:C; linker I:N-II:N via Actinocin(9to1); configuration not given here): the T/C runs as follows: (dose: 0.1 mg/kg/injection, schedule: Q01DX009 (ip), vehicle: water) 164 % of control; (dose: 0.18 mg/kg/injection, schedule: Q01DX009 (ip), vehicle: other) 166 % of control; (dose: 0.2 mg/kg/injection, schedule: Q01DX009 (ip), vehicle: water) 166 % of control; (dose: 0.27 mg/kg/injection, schedule: Q01DX009 (ip), vehicle: other) 202 % of control; (dose: 0.4 mg/kg/injection, schedule: Q01DX009 (ip), vehicle: other) 200 % of control; (dose: 0.4 mg/kg/injection, schedule: Q01DX009 (ip), vehicle: water) 205 % of control. Further, the T/C (dose: 0.6 mg/kg/injection, schedule: Q01DX009 (ip), vehicle: other) is 270 % of control; the T/C (dose: 0.8 mg/kg/injection, schedule: Q01DX009 (ip), vehicle: water) was 156 % of control; the T/C (dose: 1.6 mg/kg/injection, schedule: Q01DX009 (ip), vehicle: water) was 88 % of control.
On to `COc1cccc2c1C(=O)c1c(O)c3c(c(O)c1C2=O)C[C@@](O)(C(=O)COC(=O)c1cccnc1)C[C@@H]3OC1CC(N)C(O)C(C)O1` (stereo partly drawn), for which the T/C (dose: 0.25 mg/kg/injection, schedule: Q04DX003 (ip), vehicle: saline) is 114 % of control; the T/C (dose: 0.5 mg/kg/injection, schedule: Q01DX009 (ip), vehicle: saline with Tween-80) was 118 % of control; the T/C (dose: 0.5 mg/kg/injection, schedule: Q01DX009 (ip), vehicle: water) is 163 % of control; the T/C (dose: 0.5 mg/kg/injection, schedule: Q04DX003 (ip), vehicle: saline) is 113 % of control; the T/C (dose: 0.5 mg/kg/injection, schedule: Q04DX003 (ip), vehicle: water) is 109 % of control; the T/C (dose: 1.0 mg/kg/injection, schedule: Q01DX009 (ip), vehicle: saline with Tween-80) was 122 % of control. The T/C is 167 % of control (dose: 1.0 mg/kg/injection, schedule: Q01DX009 (ip), vehicle: water); 116 % of control and 122 % of control (dose: 1.0 mg/kg/injection, schedule: Q04DX003 (ip), vehicle: saline); 119 % of control (dose: 1.0 mg/kg/injection, schedule: Q04DX003 (ip), vehicle: water); 209 % of control (dose: 1.32 mg/kg/injection, schedule: Q01DX009 (ip), vehicle: saline sonified); 209 % of control (dose: 2.0 mg/kg/injection, schedule: Q01DX009 (ip), vehicle: saline sonified); 229 % of control (dose: 2.0 mg/kg/injection, schedule: Q01DX009 (ip), vehicle: water). Besides, the T/C by setting is: (dose: 2.0 mg/kg/injection, schedule: Q04DX003 (ip), vehicle: saline) 108 % of control; (dose: 2.0 mg/kg/injection, schedule: Q04DX003 (ip), vehicle: water) 119 % of control; (dose: 3.0 mg/kg/injection, schedule: Q01DX009 (ip), vehicle: saline sonified) 104 % of control; (dose: 4.0 mg/kg/injection, schedule: Q01DX009 (ip), vehicle: water) 102 % of control; (dose: 4.0 mg/kg/injection, schedule: Q04DX003 (ip), vehicle: saline) 113 % of control; (dose: 4.0 mg/kg/injection, schedule: Q04DX003 (ip), vehicle: water) 119 % of control. Besides, the T/C (dose: 8.0 mg/kg/injection, schedule: Q04DX003 (ip), vehicle: saline) is 118 % of control; the T/C (dose: 8.0 mg/kg/injection, schedule: Q04DX003 (ip), vehicle: water) is 172 % of control; the T/C (dose: 16.0 mg/kg/injection, schedule: Q04DX003 (ip), vehicle: water) is 166 % of control; the T/C (dose: 64.0 mg/kg/injection, schedule: Q04DX003 (ip), vehicle: saline) was 95 % of control.
Regarding `CCOC(=O)CCN(CCN(C)C)c1cc(O)c2c(c1O)C(=O)c1ccccc1C2=O`, the T/C under setting [1] is 121 % of control and the T/C under setting [2] is 120 % of control.
Consider `O=C(c1c(F)c(F)c(F)c(F)c1F)n1ccnc1`, for which the T/C reads like this: (dose: 60.0 mg/kg/injection, schedule: Q01DX005 (ip), vehicle: saline) 104 % of control; (dose: 120.0 mg/kg/injection, schedule: Q01DX005 (ip), vehicle: saline) 101 % of control; (dose: 240.0 mg/kg/injection, schedule: Q01DX005 (ip), vehicle: saline) 87 % of control.
Take `O=C(O)CCC1(C(=O)O)NCCc2c1[nH]c1ccccc21` (stereo not drawn): the T/C is, setting by setting: (dose: 25.0 mg/kg/injection, schedule: Q01DX009 (ip), vehicle: suspension in saline) 95 % of control; (dose: 50.0 mg/kg/injection, schedule: Q01DX009 (ip), vehicle: suspension in saline) 99 % of control; (dose: 100.0 mg/kg/injection, schedule: Q01DX009 (ip), vehicle: suspension in saline) 98 % of control.
With `Cc1cc(NCCCN(C)C)c2c(ccc3c(NCCCN(C)C)cc(C)nc32)n1`, the T/C by setting is: (dose: 6.0 mg/kg/injection, schedule: Q01DX009 (ip), vehicle: suspension in saline) 98 % of control; (dose: 12.0 mg/kg/injection, schedule: Q01DX009 (ip), vehicle: suspension in saline) 104 % of control; (dose: 24.0 mg/kg/injection, schedule: Q01DX009 (ip), vehicle: saline with Tween-80) 96 % of control; (dose: 24.0 mg/kg/injection, schedule: Q01DX009 (ip), vehicle: suspension in saline) 115 % of control.
With `O=C1CSC(c2cc(Cl)ccc2[N+](=O)[O-])N1c1nncs1` (stereo not drawn), the T/C reads like this: (dose: 100.0 mg/kg/injection, schedule: Q04DX002 (ip), vehicle: saline with Tween-80) 87 % of control; (dose: 200.0 mg/kg/injection, schedule: Q04DX002 (ip), vehicle: saline with Tween-80) 87 % of control; (dose: 400.0 mg/kg/injection, schedule: Q04DX002 (ip), vehicle: saline with Tween-80) 88 % of control.
As for `Cn1cnc([N+](=O)[O-])c1N`, the T/C runs as follows: (dose: 12.5 mg/kg/injection, schedule: Q01DX009 (ip), vehicle: saline with Tween-80) 106 % of control; (dose: 25.0 mg/kg/injection, schedule: Q01DX009 (ip), vehicle: saline with Tween-80) 119 % of control; under setting [3], 103 % of control; under setting [4], 106 % of control.
As to `Cc1cc(Br)c2c(c1N)C(=O)c1ccccc1C2=O`, the T/C under setting [5] was 99 % of control, the T/C under setting [6] was 107 % of control and the T/C under setting [7] was 102 % of control.
For the compound `c1ccc2c3c(cc(CNCCNCc4cc5c(c6ccccc46)CCCC5)c2c1)CCCC3`, the T/C reads like this: under setting [1], 87 % of control; under setting [2], 96 % of control; (dose: 200.0 mg/kg/injection, schedule: Q01DX005 (ip), vehicle: saline with Tween-80) 110 % of control.
As for `O=C1CC(N2CCCC2)=Nc2ccccc2N1`, the T/C was 113 % of control (dose: 50.0 mg/kg/injection, schedule: Q01DX005 (ip), vehicle: Klucel (hydroxypropylcellulose) (HPC)); 104 % of control (dose: 100.0 mg/kg/injection, schedule: Q01DX005 (ip), vehicle: Klucel (hydroxypropylcellulose) (HPC)); 103 % of control (dose: 200.0 mg/kg/injection, schedule: Q01DX005 (ip), vehicle: Klucel (hydroxypropylcellulose) (HPC)).
As for `CCCCOC(=O)OOC(C)(C)C`, the T/C reads like this: under setting [3], 110 % of control; under setting [4], 110 % of control; (dose: 200.0 mg/kg/injection, schedule: Q01DX009 (ip), vehicle: saline with Tween-80) 110 % of control.
On to `CCCCCCC(C)NCC(O)COc1cccc(C)c1` (stereo not drawn), for which the T/C is 111 % of control (dose: 3.12 mg/kg/injection, schedule: Q01DX009 (ip), vehicle: Klucel (hydroxypropylcellulose) (HPC)); 107 % of control (dose: 6.25 mg/kg/injection, schedule: Q01DX009 (ip), vehicle: Klucel (hydroxypropylcellulose) (HPC)); 111 % of control (dose: 12.5 mg/kg/injection, schedule: Q01DX009 (ip), vehicle: Klucel (hydroxypropylcellulose) (HPC)).
`CCCCCCOc1ccc(C(=O)Oc2ccc(OC(=O)c3ccc(N)cc3)cc2)cc1`: the T/C under setting [5] is 102 % of control, the T/C under setting [6] is 100 % of control and the T/C under setting [7] was 100 % of control.
